The values that follow come from patent EP4752152A1, “STEROID COMPOUND, AND PREPARATION METHOD THEREFOR AND USE THEREOF” (Cholesgen (Shanghai) Co.Ltd., priority 2023, dated 2025).

The subject of one assay is SREBP pathway. The assay can be described thus: SREBP luciferase reporter gene system (SRE-luciferase assay). Format: cell-based, human. Conditions: Homo sapiens, Huh-7, 16 h, Huh-7/SRE-luc cells, sterol-deficient medium, 0.01-10 µM. The method, boiled down:
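Huh-7 cells stably carrying LDLR promoter-luciferase plus GFP were treated 16 h in sterol-deficient medium (5% lipoprotein-deficient serum, 2 µM lovastatin, 10 µM mevalonic acid) at 0.01–10 µM. Luciferase/GFP ratio measured as pathway activity; inhibition versus DMSO fitted to a four-parameter model for IC50.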
For orientation: In a reporter assay the amount or activity of a reporter protein is the signal.

The subject of assay [1] is Fatty Acid Synthase (FASN) gene. Description: Inhibition of FASN gene expression (qPCR) in Huh-7 cells. Format: cell-based, human. The conditions noted are these: Homo sapiens, Huh-7, 16 h, Huh-7 cells, starvation medium, 16 hours, qPCR; class symbols; read-out: FASN IC50. The method, boiled down:
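Huh-7 cells switched to starvation DMEM (5% LPDS, 2 µM lovastatin, 10 µM mevalonate) and treated 16 h with compound, top 3000 nM, 3-fold dilutions, 5 concentrations. FASN mRNA by RT-qPCR; inhibition relative to DMSO, IC50 from four-parameter fit.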
In general terms: Quantitative PCR measures a nucleic acid by following its amplification.

pIC50: −log10 of the molar value. Some results are limits rather than exact numbers.

As usually defined, the IC50 is the concentration at which inhibition is half-maximal. Broadly, the pIC50 is the negative decadic logarithm of the IC50, by convention in mol/L. Take `C[C@H](CCCC(O)c1ccc(F)cc1)[C@H]1CC[C@H]2[C@H]3[C@H](CC[C@]12C)[C@@]1(C)CC[C@H](O)[C@H](O)[C@@H]1CC3(F)F` (stereo partly drawn) [Compound 100, (1R,3aS,3bS,5aR,6R,7S,9aR,9bS,11aR)-4,4-difluoro-1-[(2R)-6-(4-fluorophenyl)-6-hydroxyhexan-2-yl]-9a,11a-dimethylhexadecahydro-1H-cyclopenta[1,2-a]phenanthrene-6,7-diol]: the IC50 in the assay with SREBP pathway turned out to be 0.179 µM. Further, the pIC50 in assay [1] was 6.30 to 6.70.
The corresponding values for `COc1ccc(C(O)CCC[C@@H](C)[C@H]2CC[C@H]3C4=C(F)C[C@H]5[C@@H](O)[C@@H](O)CC[C@]5(C)[C@H]4CC[C@]23C)c(F)c1` (stereo partly drawn) [Compound 68, (1R,3aR,5aR,6R,7S,9aR,9bR,11aR)-4-fluoro-1-[(2R)-6-(2-fluoro-4-methoxyphenyl)-6-hydroxyhexan-2-yl]-9a,11a-dimethyl-2,3,3a,5,5a,6,7,8,9,9a,9b,10,11,11a-tetradecahydro-1H-cyclopenta[1,2-a]phenanthrene-6,7-diol] are 0.434 µM and 6.30 to 6.70.
The corresponding values for `C[C@H](CCCC(O)c1nnnn1C)[C@H]1CC[C@H]2[C@H]3[C@H](CC[C@]12C)[C@@]1(C)CC[C@H](O)C[C@@H]1CC3(F)F` (stereo partly drawn) [Compound 373, (1R,3aS,3bR,5aR,7S,9aS,9bS,11aR)-4,4-difluoro-1-[(2R)-6-hydroxy-6-(1-methyl-1,2,3,4-tetrazol-5-yl)hexan-2-yl]-9a,11a-dimethylhexadecahydro-1H-cyclopenta[1,2-a]phenanthren-7-ol] are 0.078 µM and greater than 6.70.
The corresponding values for `C[C@H](CCCC(O)c1cccc2ncn(C)c12)[C@H]1CC[C@H]2[C@H]3[C@H](CC[C@]12C)[C@@]1(C)CC[C@H](O)[C@H](O)[C@@H]1CC3(F)F` (stereo partly drawn) [Compound 261, (1R,3aS,3bS,5aR,6R,7 S,9aR,9bS,11aR)-4,4-Difluoro-1-[(2R)-6-hydroxy-6-(3-methylbenzo[d]imidazol-4-yl)hexan-2-yl]-9a,11a-dimethylhexadecahyd ro-1H-cyclopenta[1,2-a]phenanthrene-6,7-diol] are 0.001 µM and greater than 6.70.
As for `C[C@H](CCCC(O)c1c(F)cccc1F)[C@H]1CC[C@H]2C3=C(F)CC4C[C@@H](O)CC[C@]4(C)[C@H]3CC[C@]12C` (stereo in doubt) [Compound 82, (1R,3aR,7S,9aS,9bR,11aR)-1-[(2R)-6-(2,6-difluorophenyl)-6-hydroxyhexan-2-yl]-4-fluoro-9a,11a-dimethyl-2,3,3a,5,5a,6,7,8,9,9a,9b,10,11,11a-tetradecahydro-1H-cyclopenta[1,2-a]phenanthren-7-ol], the IC50 with SREBP pathway was found to be 0.357 µM. The pIC50 in assay [1] is 6.30 to 6.70.
The corresponding values for `C[C@H](CCCC(O)c1nc2cnccc2n1C)[C@H]1CC[C@H]2[C@H]3[C@H](CC[C@]12C)[C@@]1(C)CC[C@H](O)[C@H](O)[C@@H]1CC3(F)F` (stereo partly drawn) [Compound 311, (1R,3aS,3bS,5aR,6R,7 S,9aR,9bS,11aR)-4,4-Difluoro-1-[(2R)-6-hydroxy-6-(1-methylimidazo[5,4-c]pyridin-2-yl)hexan-2-yl]-9a,11a-dimethylhexadecahydro-1H-cyclopenta[1,2-a]phenanthrene-6,7-diol] are 0.072 µM and greater than 6.70.
The corresponding values for `COc1cccc(F)c1C(O)CCC[C@@H](C)[C@H]1CC[C@H]2[C@H]3[C@H](CC[C@]12C)[C@@]1(C)CC[C@H](O)C[C@@H]1CC3(F)F` (single isomer, unassigned) [Compound 314] are 0.14 µM and 6.05 to 6.30.
The corresponding values for `COc1cc(F)nc(F)c1[C@H](O)CCC[C@@H](C)[C@H]1CC[C@H]2[C@H]3[C@H](CC[C@]12C)[C@@]1(C)CC[C@H](O)[C@H](O)[C@@H]1CC3(F)F` (single isomer, unassigned) [Compound 262] are 0.017 µM and greater than 6.70.
As to `C[C@H](CCCC(O)c1nc2cccc(Br)c2n1C)[C@H]1CC[C@H]2[C@H]3[C@H](CC[C@]12C)[C@@]1(C)CC[C@H](O)[C@H](O)[C@@H]1CC3(F)F` (stereo partly drawn) [Compound 212, (1R,3aS,3bS,5aR,6R,7 S,9aR,9bS,11aR)-1-[(2R)-6-(7-Bromo-1-methylbenzo[d]imidazol-2-yl)-6-hydroxyhexan-2-yl]-4,4-difluoro-9a,11a-dimethylhexadecahydro-1H-cyclopenta[1,2-a]phenanthrene-6,7-diol], in the assay with SREBP pathway, the IC50 came out at 0.08 µM. Besides, the pIC50 in assay [1] was 6.30 to 6.70.
`C[C@H](CCC[C@@H](O)c1nc2ccccc2n1C)[C@H]1CC[C@H]2[C@H]3[C@H](CC[C@]12C)[C@@]1(C)CC[C@H](O)[C@H](O)[C@@H]1CC3(F)F` [Compound 307, (1R,3aS,3bS,5aR,6R,7S,9aR,9bS,11aR)-4,4-difluoro-1-[(2R,6R)-6-hydroxy-6-(1-methylbenzo[d]imidazol-2-yl)hexan-2-yl]-9a,11a-dimethylhexadecahydro-1H-cyclopenta[1,2-a]phenanthrene-6,7-diol]: the IC50 in the assay on SREBP pathway was determined as 0.054 µM. The negative logarithm of the IC50 (pIC50) in assay [1] is greater than 6.70.
On to `C[C@H](CCCC(O)c1nccs1)[C@H]1CC[C@H]2[C@H]3[C@H](CC[C@]12C)[C@@]1(C)CC[C@H](O)[C@H](O)[C@@H]1CC3(F)F` (stereo partly drawn) [Compound 89, (1R,3aS,3bS,5aR,6R,7S,9aR,9bS,11aR)-4,4-difluoro-1-[(2R)-6-hydroxy-6-(1,3-thiazol-2-yl)hexan-2-yl]-9a,11a-dimethylhexadecahydro-1H-cyclopenta[1,2-a]phenanthrene-6,7-diol], for which the IC50 with SREBP pathway is 0.183 µM. Besides, in assay [1], the pIC50 is greater than 6.70.
The corresponding values for `C[C@H](CCC(=O)N(C)c1ccccc1F)[C@H]1CC[C@H]2[C@H]3[C@H](CC[C@]12C)[C@@]1(C)CC[C@H](O)[C@H](O)[C@@H]1CC3(F)F` [Compound 95, (4R)-4-[(1R,3aS,3bS,5aR,6R,7S,9aR,9bS,11aR)-4,4-difluoro-6,7-dihydroxy-9a,11a-dimethylhexadecahydro-1H-cyclopenta[1,2-a]phenanthren-1-yl]-N-(2-fluorophenyl)-N-methylpentanamide] are 0.08 µM and greater than 6.70.
The corresponding values for `C[C@H](CCC[C@@H](O)c1c(F)ccnc1F)[C@H]1CC[C@H]2[C@H]3[C@H](CC[C@]12C)[C@@]1(C)CC[C@H](O)[C@H](O)[C@@H]1CC3(F)F` (single isomer, unassigned) [Compound 232] are 0.151 µM and 6.30 to 6.70.
Turning to `C[C@H](CCCC(O)c1cccc2ncn(C)c12)[C@H]1CC[C@H]2[C@H]3[C@H](CC[C@]12C)[C@@]1(C)CC[C@H](O)[C@H](O)[C@@H]1CC3(F)F` (single isomer, unassigned) [Compound 299, (1R,3aS,3bS,5aR,6R,7S,9aR,9bS,11aR)-4,4-difluoro-1-[(2R,6R)-6-hydroxy-6-(3-methylbenzo[d]imidazol-4-yl)hexan-2-yl]-9a,11a-dimethylhexadecahydro-1H-cyclopenta[1,2-a]phenanthrene-6,7-diol or (1R,3aS,3bS,5aR,6R,7S,9aR,9bS,11aR)-4,4-difluoro-1-[(2R,6S)-6-hydroxy-6-(3-methylbenzo[d]imidazol-4-yl)hexan-2-yl]-9a,11a-dimethylhexadecahydro-1H-cyclopenta[1,2-a]phenanthrene-6,7-diol], the IC50 in the assay on SREBP pathway is 0.033 µM. The pIC50 in assay [1] was greater than 6.70.
